Reference: patent publication US10273211B2, “Metabolites of N-{4-([6,7-bis(methyloxy)quinolin-4-yl]oxy}phenyl)-N′-(4-fluorophenyl)cyclopropane-1,1-dicarboxamide” (Exelixis, Inc., priority 2013, dated 2019)
Blank lines part the entries; values can stand above or below the compound they belong to.

Legend:
[1] = Metabolite profiling of human plasma after [14C] cabozantinib (mass balance study); assay type: in vivo; conditions: single 175 mg oral dose of cabozantinib (L-malate salt) with [14C] cabozantinib, HPLC Method 1
Description: (§1) The objective of this study was to profile and identify metabolites of cabozantinib in human plasma, urine, and feces.
(§2) The plasma, urine, and fecal samples were collected from the 8 subjects for the metabolite profiling.
(§3) All samples were shipped to QPS LLC (Newark, Del.) and stored at −70° C. HPLC/tandem MS coupled with a radio flow-through detector (RFD) was used for metabolite profiling and identification for samples with sufficient levels of radioactivity.
(§4) HPLC fraction collection followed by counting with TopCount NXT™ was used for radioquantitation of plasma samples with sufficient levels of radioactivity. […] HPLC Method 1 was used for the analysis of pooled urine and fecal samples and individual plasma samples from different time points. […] HPLC Method 3 was used for pooled plasma samples.
For the investigation of co-eluting metabolites, nonradiolabeled plasma samples of six subjects were pooled, processed, and analyzed for pre-dose, 1-7, 8-96, and 120-336 hours post-dose. […] [^14C]
Radiolabeled and non-radiolabeled plasma samples were extracted employing the same method, using 1.0-2 mL plasma samples, depending on the volume available and radioactivity level of the samples. The supernatants were evaporated to dryness under a stream of nitrogen in an ambient water bath, and the residues were reconstituted in 0.35-0.5 mL of MeOH:ACN:water (10:20:70, v/v/v). The reconstituted samples were centrifuged at 15,000 rpm for 10 minutes. Aliquots of the supernatants were injected onto the HPLC system for analysis.
(§5) The system for metabolite profiling and identification (HPLC/MS/RFD) consisted of a HTC PAL autosampler, a Surveyor HPLC pump, a LTQ linear ion trap mass spectrometer, and a β-RAM Model 3 RFD. The data obtained by mass spectrometry and RFD were processed by Xcalibur and Laura Lite 3 software, respectively. The HPLC eluent was split between the RFD and mass spectrometer with a ratio of 3 to 1. The following are the summary of the conditions for HPLC, mass spectrometer, and RFD.
Mass spectra (MS, MS/MS, and MS/MS/MS) of cabozantinib and its metabolite standards, provided by the Exelixis, Inc., were acquired on an ion trap mass spectrometer. Major fragment patterns were proposed. Identification of these metabolites was confirmed by matching mass spectra (MS and MS/MS) and retention times with authentic reference standards. For other unknown metabolites, molecular ions were searched on LC/MS chromatograms operating in full scan positive as well as negative ionization modes at the same retention times as those found on LC-radio chromatogram. […]
For plasma samples, percent of total radioactivity in the sample for each peak at each time point was calculated and converted to ng/mL.

[2] = Metabolite profiling of human feces after [14C] cabozantinib (mass balance study); assay type: in vivo; conditions: single 175 mg oral dose
Description: as §1, §2, §3, §4
The supernatants were dried under a nitrogen stream, and the residues were reconstituted in water:ACN:FA (80:20:0.1, v/v/v). The reconstituted samples were centrifuged at 15,000 rpm for 10 min before analysis.
as §5
(§6) Mass spectra (MS, MS/MS, and MS/MS/MS) of cabozantinib and its metabolite standards, provided by the Exelixis, Inc., were acquired on an ion trap mass spectrometer. Major fragment patterns were proposed. Identification of these metabolites was confirmed by matching mass spectra (MS and MS/MS) and retention times with authentic reference standards. For other unknown metabolites, molecular ions were searched on LC/MS chromatograms operating in full scan positive as well as negative ionization modes at the same retention times as those found on LC-radio chromatogram. Product ion mass spectra and high resolution mass spectra were then acquired for the corresponding molecular ions. Putative metabolite structures were proposed based on the analysis of their mass fragment patterns.
For the pooled fecal samples, percent of total radioactivity in the pooled sample for each peak was calculated as the percent of total non-parent plus parent in the pooled samples: % of total non-parent plus parent in the pooled samples=(total radioactivity of the peak/total radioactivity of the parent and non-parent peaks)×100

[3] = Metabolite profiling of human urine after [14C] cabozantinib (mass balance study); assay type: in vivo; conditions: single 175 mg oral dose; for presence in pooled urine sample: human urine
Description: as §1, §2, §3, §4
The radioactivity in pooled urine and reconstituted solution was counted using LSC, and the reconstitution recovery calculated. […] Each pooled urine sample was lyophilized, the residue was reconstituted in water:ACN:FA (80:20:0.1, v/v/v), and the reconstituted sample was centrifuged at 15,000 rpm for 10 min before analysis.
as §5, §6
For the pooled urine samples, percent of total radioactivity in the pooled sample for each peak was calculated as the % of total non-parent in the pooled samples: % of total non-parent in the pooled samples=(total radioactivity of the peak/total radioactivity of the non-parent peaks)×100

KDR = KDR (Homo sapiens (Human), UniProt P35968); experiment: Kinase activity, EMD Millipore Kinase Profiler; assay type: biochemical; conditions: for IC50: read-out: KDR Std (IC50); for inhibition at 1 µM: read-out: KDR percent inhibition
Flt-3 = Flt-3 (Homo sapiens (Human), UniProt P36888); experiment: Kinase activity, EMD Millipore Kinase Profiler; assay type: biochemical; conditions: for IC50: read-out: Flt-3 Std (IC50); for inhibition at 1 µM: read-out: Flt-3 percent inhibition
Aurora B MP = Aurora B MP (Homo sapiens (Human), UniProt Q96GD4); experiment: Kinase activity, EMD Millipore Kinase Profiler; assay type: biochemical; conditions: for IC50: read-out: Aurora B MP 8pt Std (IC50); for inhibition at 1 µM: read-out: Aurora B MP percent inhibition
c-Met = c-Met (Homo sapiens (Human), UniProt P08581); experiment: Kinase activity, EMD Millipore Kinase Profiler; assay type: biochemical; conditions: for IC50: read-out: c-Met Std (IC50); for inhibition at 1 µM: read-out: c-Met percent inhibition
RET = RET (Homo sapiens (Human), UniProt P07949); experiment: Kinase activity, EMD Millipore Kinase Profiler; assay type: biochemical; conditions: read-out: RET percent inhibition
Flt-1 Alpha = Flt-1 Alpha (Homo sapiens (Human), UniProt P17948); experiment: Kinase activity, EMD Millipore Kinase Profiler; conditions: for inhibition at 1 µM: read-out: Flt-1 Alpha percent inhibition
Flt-4 = Flt-4 (Homo sapiens (Human), UniProt P35916); experiment: Kinase activity, EMD Millipore Kinase Profiler; assay type: biochemical; conditions: for inhibition at 1 µM: read-out: Flt-4 percent inhibition
Chain of Flt-4 (P35916 25-1363): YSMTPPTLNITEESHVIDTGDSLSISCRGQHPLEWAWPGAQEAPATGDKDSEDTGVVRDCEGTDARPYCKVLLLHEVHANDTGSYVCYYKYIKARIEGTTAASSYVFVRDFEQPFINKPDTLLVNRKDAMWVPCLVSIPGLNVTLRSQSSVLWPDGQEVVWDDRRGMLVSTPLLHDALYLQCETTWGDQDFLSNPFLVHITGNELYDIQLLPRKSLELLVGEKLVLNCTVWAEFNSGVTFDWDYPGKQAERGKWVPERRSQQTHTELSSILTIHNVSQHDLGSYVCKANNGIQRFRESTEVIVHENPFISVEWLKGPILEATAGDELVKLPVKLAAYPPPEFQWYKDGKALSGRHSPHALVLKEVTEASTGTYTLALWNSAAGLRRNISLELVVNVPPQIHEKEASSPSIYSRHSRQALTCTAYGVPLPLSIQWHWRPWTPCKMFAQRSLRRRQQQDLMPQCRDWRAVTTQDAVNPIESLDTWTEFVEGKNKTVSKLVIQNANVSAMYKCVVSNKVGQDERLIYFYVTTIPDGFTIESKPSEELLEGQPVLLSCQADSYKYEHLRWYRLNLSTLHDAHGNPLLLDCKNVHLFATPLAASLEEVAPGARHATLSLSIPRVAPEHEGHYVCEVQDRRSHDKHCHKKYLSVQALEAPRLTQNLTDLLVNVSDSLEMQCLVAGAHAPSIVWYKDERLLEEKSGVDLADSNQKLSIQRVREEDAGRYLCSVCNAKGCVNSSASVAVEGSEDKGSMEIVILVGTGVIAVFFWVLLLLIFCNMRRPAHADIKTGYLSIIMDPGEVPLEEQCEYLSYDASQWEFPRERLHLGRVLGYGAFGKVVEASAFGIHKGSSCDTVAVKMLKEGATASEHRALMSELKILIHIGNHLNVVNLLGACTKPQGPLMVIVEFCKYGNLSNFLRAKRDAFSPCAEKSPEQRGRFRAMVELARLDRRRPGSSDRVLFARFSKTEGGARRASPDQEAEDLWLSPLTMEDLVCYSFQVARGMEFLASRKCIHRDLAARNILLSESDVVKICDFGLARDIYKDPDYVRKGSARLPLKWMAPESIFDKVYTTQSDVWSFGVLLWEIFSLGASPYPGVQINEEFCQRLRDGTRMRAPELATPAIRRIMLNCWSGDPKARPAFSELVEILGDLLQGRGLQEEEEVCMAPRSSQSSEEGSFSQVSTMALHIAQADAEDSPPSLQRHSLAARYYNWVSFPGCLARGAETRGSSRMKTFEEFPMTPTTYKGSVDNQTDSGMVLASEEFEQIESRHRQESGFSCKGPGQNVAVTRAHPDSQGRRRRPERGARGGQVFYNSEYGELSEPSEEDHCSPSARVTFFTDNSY

Chain of Aurora B MP (Q96GD4 whole entry): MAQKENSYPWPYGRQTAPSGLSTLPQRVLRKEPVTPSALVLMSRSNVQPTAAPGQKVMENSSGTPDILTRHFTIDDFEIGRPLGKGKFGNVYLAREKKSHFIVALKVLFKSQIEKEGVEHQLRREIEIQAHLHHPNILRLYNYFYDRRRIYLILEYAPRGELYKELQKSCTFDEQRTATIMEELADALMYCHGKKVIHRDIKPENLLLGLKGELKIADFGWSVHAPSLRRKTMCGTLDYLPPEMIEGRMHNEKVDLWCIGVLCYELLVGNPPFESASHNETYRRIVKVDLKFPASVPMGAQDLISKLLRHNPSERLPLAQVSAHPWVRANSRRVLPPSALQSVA
Chain of Flt-1 Alpha (P17948 27-1338): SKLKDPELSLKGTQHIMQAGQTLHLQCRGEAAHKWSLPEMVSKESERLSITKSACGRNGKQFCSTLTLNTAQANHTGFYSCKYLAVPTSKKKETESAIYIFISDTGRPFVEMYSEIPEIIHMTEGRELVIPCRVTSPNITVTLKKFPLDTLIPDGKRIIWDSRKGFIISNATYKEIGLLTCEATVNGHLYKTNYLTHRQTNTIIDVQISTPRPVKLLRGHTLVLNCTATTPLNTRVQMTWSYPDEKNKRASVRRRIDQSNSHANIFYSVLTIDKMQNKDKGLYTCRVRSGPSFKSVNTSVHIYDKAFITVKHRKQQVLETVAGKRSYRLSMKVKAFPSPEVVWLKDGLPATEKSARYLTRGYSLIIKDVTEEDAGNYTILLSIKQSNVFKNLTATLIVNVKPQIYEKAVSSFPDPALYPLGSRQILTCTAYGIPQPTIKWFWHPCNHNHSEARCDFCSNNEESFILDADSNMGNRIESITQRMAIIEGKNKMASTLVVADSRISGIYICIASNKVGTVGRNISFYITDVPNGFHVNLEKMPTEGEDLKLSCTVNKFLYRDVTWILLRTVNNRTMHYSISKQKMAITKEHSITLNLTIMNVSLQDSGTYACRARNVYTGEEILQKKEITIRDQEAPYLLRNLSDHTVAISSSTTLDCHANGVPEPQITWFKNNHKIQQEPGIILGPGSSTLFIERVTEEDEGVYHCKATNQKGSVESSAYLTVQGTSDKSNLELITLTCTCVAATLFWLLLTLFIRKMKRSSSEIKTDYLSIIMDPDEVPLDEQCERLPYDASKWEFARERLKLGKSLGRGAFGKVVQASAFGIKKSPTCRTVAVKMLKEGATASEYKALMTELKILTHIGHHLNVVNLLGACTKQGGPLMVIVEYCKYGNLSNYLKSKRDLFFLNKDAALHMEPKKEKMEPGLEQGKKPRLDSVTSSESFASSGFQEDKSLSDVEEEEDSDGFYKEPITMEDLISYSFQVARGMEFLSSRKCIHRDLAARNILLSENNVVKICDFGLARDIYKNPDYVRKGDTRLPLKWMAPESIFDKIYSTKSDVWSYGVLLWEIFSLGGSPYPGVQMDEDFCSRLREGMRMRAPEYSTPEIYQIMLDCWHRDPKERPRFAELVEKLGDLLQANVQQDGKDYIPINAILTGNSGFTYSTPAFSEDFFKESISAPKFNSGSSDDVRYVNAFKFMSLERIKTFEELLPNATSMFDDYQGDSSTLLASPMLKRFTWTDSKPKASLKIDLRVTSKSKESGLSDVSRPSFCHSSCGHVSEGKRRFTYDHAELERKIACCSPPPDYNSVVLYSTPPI
Chain of Flt-3 (P36888 27-993): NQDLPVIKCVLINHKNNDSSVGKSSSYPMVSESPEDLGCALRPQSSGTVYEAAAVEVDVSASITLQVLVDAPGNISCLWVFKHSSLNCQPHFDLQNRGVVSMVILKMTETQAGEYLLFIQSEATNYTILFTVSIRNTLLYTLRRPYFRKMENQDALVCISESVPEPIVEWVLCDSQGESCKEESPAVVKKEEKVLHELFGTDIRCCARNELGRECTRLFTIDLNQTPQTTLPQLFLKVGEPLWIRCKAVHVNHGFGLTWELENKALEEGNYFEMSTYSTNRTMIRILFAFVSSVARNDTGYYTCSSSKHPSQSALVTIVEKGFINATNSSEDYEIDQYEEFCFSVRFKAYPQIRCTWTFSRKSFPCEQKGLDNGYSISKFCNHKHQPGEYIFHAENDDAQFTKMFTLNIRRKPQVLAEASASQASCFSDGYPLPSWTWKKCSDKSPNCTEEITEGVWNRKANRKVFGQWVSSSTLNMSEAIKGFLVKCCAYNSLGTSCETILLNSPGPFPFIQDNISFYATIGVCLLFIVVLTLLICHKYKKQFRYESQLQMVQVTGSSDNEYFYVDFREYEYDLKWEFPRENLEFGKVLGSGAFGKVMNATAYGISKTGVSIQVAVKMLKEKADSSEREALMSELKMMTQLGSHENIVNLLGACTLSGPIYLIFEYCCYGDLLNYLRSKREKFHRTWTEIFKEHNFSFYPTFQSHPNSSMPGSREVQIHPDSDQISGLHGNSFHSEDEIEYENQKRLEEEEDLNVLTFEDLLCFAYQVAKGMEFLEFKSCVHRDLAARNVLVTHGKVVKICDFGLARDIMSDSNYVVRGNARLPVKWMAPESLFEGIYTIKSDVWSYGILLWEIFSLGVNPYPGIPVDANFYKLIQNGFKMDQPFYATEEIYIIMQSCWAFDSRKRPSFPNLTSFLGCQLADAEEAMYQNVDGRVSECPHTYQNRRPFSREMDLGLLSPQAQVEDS
Chain of RET (P07949 29-1114): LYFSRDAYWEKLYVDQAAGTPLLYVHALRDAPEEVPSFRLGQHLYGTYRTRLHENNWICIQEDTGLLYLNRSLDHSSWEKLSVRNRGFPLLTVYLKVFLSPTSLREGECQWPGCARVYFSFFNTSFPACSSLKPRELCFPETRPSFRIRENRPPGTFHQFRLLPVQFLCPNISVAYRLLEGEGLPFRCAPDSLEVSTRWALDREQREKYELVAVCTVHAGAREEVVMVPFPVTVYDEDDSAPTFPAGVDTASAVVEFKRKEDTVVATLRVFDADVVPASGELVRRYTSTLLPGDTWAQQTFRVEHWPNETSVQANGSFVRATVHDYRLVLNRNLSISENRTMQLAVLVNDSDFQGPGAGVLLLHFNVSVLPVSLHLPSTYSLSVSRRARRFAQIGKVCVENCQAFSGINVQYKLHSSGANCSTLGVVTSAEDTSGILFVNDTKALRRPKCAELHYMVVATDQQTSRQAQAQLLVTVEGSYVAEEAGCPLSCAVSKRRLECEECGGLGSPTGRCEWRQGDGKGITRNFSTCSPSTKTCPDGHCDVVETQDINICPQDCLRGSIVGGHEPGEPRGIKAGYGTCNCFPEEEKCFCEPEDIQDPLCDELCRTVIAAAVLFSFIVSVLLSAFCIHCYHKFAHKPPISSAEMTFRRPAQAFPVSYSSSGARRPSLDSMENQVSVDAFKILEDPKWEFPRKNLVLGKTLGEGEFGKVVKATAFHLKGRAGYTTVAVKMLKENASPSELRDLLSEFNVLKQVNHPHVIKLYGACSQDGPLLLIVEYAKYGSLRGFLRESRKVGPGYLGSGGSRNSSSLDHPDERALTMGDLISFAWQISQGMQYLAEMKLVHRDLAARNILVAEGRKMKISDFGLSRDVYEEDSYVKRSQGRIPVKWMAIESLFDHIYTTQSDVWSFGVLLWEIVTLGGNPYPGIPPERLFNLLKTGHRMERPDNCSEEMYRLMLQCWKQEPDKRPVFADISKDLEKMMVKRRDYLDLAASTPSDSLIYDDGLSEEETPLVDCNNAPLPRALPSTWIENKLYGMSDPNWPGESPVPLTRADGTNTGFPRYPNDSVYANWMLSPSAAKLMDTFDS

peak on plasma radio-chromatograms [1]: one of the minor peaks
presence in pooled fecal sample ([2]; 0-72 hours post dose): observed
presence in pooled fecal sample ([2]; 144-192 hours post dose): observed
presence in pooled urine sample ([3]; 0-72 hours post dose): observed
presence in pooled urine sample ([3]; 144-192 hours post dose): observed
IC50 (KDR): > 5000 nM
IC50 (Flt-3): 500 to 5000 nM
IC50 (Aurora B MP): 500 to 5000 nM
IC50 (c-Met): > 5000 nM
Compound: COc1cc2nccc(Oc3ccc(NC(=O)C4(C(=O)O)CC4)cc3)c2cc1OC [Compound 7, 1-[4-(6,7-Dimethoxy-quinolin-4-yloxy)-phenylcarbamoyl]-cyclopropane carboxylic acid]

peak on plasma radio-chromatograms [1]: major peaks
inhibition at 1 µM (RET): ≥ 75%
inhibition at 1 µM (KDR): ≤ 25%
inhibition at 1 µM (Flt-1 Alpha): ≥ 50%
inhibition at 1 µM (Flt-3): ≥ 50%
inhibition at 1 µM (Aurora B MP): ≥ 75%
inhibition at 1 µM (c-Met): ≥ 75%
inhibition at 1 µM (Flt-4): ≥ 75%
Compound: COc1cc2nccc(Oc3ccc(NC(=O)C4(C(=O)Nc5ccc(F)cc5OS(=O)(=O)O)CC4)cc3)c2cc1OC [Compound 9]

inhibition at 1 µM (RET): ≤ 25%
inhibition at 1 µM (KDR): ≤ 25%
inhibition at 1 µM (Flt-1 Alpha): ≤ 25%
inhibition at 1 µM (Flt-3): ≤ 25%
inhibition at 1 µM (Aurora B MP): ≤ 25%
inhibition at 1 µM (c-Met): ≥ 50%
inhibition at 1 µM (Flt-4): ≥ 25%
Compound: COc1cc2nccc(Oc3ccc(NC(=O)C4(C(=O)O)CC4)cc3)c2cc1OS(=O)(=O)O [Compound 2a]

presence in pooled fecal sample ([2]; 0-72 hours post dose): observed
presence in pooled fecal sample ([2]; 144-192 hours post dose): observed
IC50 (KDR): < 50 nM
IC50 (Flt-1 Alpha): 500 to 5000 nM
IC50 (Flt-3): < 50 nM
IC50 (Aurora B MP): 50 to 500 nM
IC50 (c-Met): < 50 nM
Compound: COc1cc2nccc(Oc3ccc(NC(=O)C4(C(=O)Nc5ccc(F)cc5O)CC4)cc3)c2cc1OC [Compound 16]

peak on plasma radio-chromatograms [1]: major peaks
presence in pooled fecal sample ([2]; 0-72 hours post dose): observed
presence in urine samples ([3]; human urine samples, all intervals): not observed
IC50 (Flt-4; read-out: Flt-4 Std (IC50)): < 50 nM
Compound: COc1cc2nccc(Oc3ccc(NC(=O)C4(C(=O)Nc5ccc(F)cc5)CC4)cc3)c2cc1OC [Cabozantinib, N-(4-{[6,7-bis(methyloxy)quinolin-4-yl]oxy}phenyl)-N′-(4-fluorophenyl)cyclopropane-1,1-dicarboxamide, reference compound]

peak on plasma radio-chromatograms [1]: major peaks
presence in pooled urine sample ([3]; 0-72 hours post dose): observed
Compound: COc1cc2c(Oc3ccc(NC(=O)C4(C(=O)Nc5ccc(F)cc5)CC4)cc3)cc[n+]([O-])c2cc1OC [Compound 19]

IC50 (KDR): < 50 nM
IC50 (Flt-1 Alpha): 500 to 5000 nM
IC50 (Flt-3): < 50 nM
IC50 (Aurora B MP): 50 to 500 nM
IC50 (c-Met): < 50 nM
Compound: COc1cc2nccc(Oc3ccc(NC(=O)C4(C(=O)Nc5ccc(F)c(O)c5)CC4)cc3)c2cc1OC [Compound 13]
